Measured values published in patent US9868935B2, “Composition and method of stem cells for preservation of cardiac tissue” (CRIOESTAMINAL, SAÚDE E TECNOLOGIA, SA., priority 2012, dated 2018).

Key:
[1] = tested on: human umbilical cord blood derived CD34+ cells; experiment: CD34+ cell survival in hypoxia and serum deprived conditions (Annexin V/PI flow cytometry); type: cell-based; settings: for percentage of viable cells: LPA-treated (100 μM)
Method: In an embodiment, UCB CD34+ cells (1×10^^6 cells/mL) were incubated in X-Vivo media (Lonza) in a hypoxia chamber for 24 h (0.5% of O2 and 5% of CO2), in the presence or absence of pharmacological drugs, for further assessment of cell survival/apoptosis and necrosis by FACS analysis of the expression of annexin V and PI respectively. Preferably, cells were pretreated with the respective drugs for 1 hour before hypoxia, and treatment maintained during hypoxia.
In a preferred embodiment, to identify molecules that promote CD34+ cell survival in hypoxia and serum deprived conditions we developed an assay that uses human umbilical cord blood derived CD34+ cells (2×10^^5 cells per well of a 96-well plate) suspended in X-Vivo medium (used in clinical trials (Schachinger, V., et al., Intracoronary bone marrow-derived progenitor cells in acute myocardial infarction. N Engl J Med, 2006. 355(12): p. 1210-21)) and incubated in a hypoxia chamber at 0.5% O2, at 37° C., for 24 h. Some of the drugs selected have been approved by FDA for the treatment of cardiovascular diseases (e.g. Nebivolol Lombardo, R. M., et al., Effects of nebivolol versus carvedilol on left ventricular function in patients with chronic heart failure and reduced left ventricular systolic function. Am J Cardiovasc Drugs, 2006. 6(4): p. 259-63; Ibersatan Massie, B. M., et al., Irbesartan in patients with heart failure and preserved ejection fraction. N Engl J Med, 2008. 359(23): p. 2456-67), others are being evaluated in pre-clinical/clinical assays to improve heart function in patients/models with heart failure (e.g. INO1001 (Szabo, G., et al., INO-1001 a novel poly(ADP-ribose) polymerase (PARP) inhibitor improves cardiac and pulmonary function after crystalloid cardioplegia and extracorporal circulation. Shock, 2004. 21(5): p. 426-32); erythropoietin (Belonje, A. M., et al., Effects of erythropoietin after an acute myocardial infarction: rationale and study design of a prospective, randomized, clinical trial (HEBE III). Am Heart J, 2008. 155(5): p. 817-22); melatonin (Chen, Z., et al., Protective effect of melatonin on myocardial infarction. Am J Physiol Heart Circ Physiol, 2003. 284(5): p. H1618-24); VX-702 (Ma, X. L., et al., Inhibition of p38 mitogen-activated protein kinase decreases cardiomyocyte apoptosis and improves cardiac function after myocardial ischemia and reperfusion. Circulation, 1999. 99(13): p. 1685-91)), others are natural substances found in the human body (LPA). Cell viability was evaluated by flow cytometry using Annexin V/propidium iodide (PI) staining. Annexin V is a phospholipid-binding protein with specificity for phospatidyl serine, one of the earliest makers of cellular transition to an apoptotic state. This phospholipid is translocated from the inner to the outer leaflet of the plasma membrane (Koopman, G., et al., Annexin V for flow cytometric detection of phosphatidylserine expression on B cells undergoing apoptosis. Blood, 1994. 84(5): p. 1415-20.). PI enters in necrotic cells and binds to double-stranded nucleic acids, but is excluded from cells with normal integrity. According to FIG. 1, untreated CD34+ cells show a very poor survival, with only ˜31% of viable cells, ˜31% of apoptotic cells (Annexin V+/PI−) being the majority of the cells ˜39% at the necrotic stage (PI+). […] LPA (10 μM) was the drug with the highest pro-survival effect (˜69% of viable cells) and therefore further studied (FIGS. 1 and 2A).
Importantly, the percentage of viable cells in CD34+ treated with 1 μM of LPA and cultured under hypoxia conditions is similar to untreated cells cultured under normoxia conditions. The pro-survival effect of LPA decreases as a function of hypoxia time (FIG. 2C). The percentage of viable cells in LPA-treated CD34+ cells decreased from 78% at day 1 to 40% at day 3.

CD34+ cells = experiment: CD34+ cell proliferation after hypoxia 24 h then normoxia 6 days; type: cell-based, human; settings: LPA 100 μM; 24 h hypoxia + 6 days normoxia (7 days period)
From the text: LPA is highly mitogenic for quiescent cells. The mitogenic action of LPA involves the activation of a pertussis toxin-insensitive G protein with subsequent Ca^2+ mobilization and stimulation of protein kinase C, release of arachidonic acid in a GTP-dependent manner, and activation of a pertussis toxinsensitive Gi protein mediating inhibition of adenylate cyclase (van Corven, E. J., et al., Lysophosphatidate-induced cell proliferation: identification and dissection of signaling pathways mediated by G proteins. Cell, 1989. 59(1): p. 45-54). To determine whether LPA can induce the proliferation of CD34+ cells, a suspension of untreated or LPA-treated cells (2×10^^5 cells in 200 μL of X-vivo medium) was exposed to hypoxia for 24 h and then cultured under normoxia conditions for 6 additional days. LPA-treated cells increased their number approximately 3-fold over the 7 days period while untreated cells decreased to half of their initial number (FIG. 3A).

## lysophosphatidic acid [LPA]
[1]; 1 μM LPA, hypoxia 24 h, P<0.001, n=6
  survival of CD34+ cells vs control (untreated cells): statistically significant
[1]; LPA 10 μM, hypoxia 0.5% O2, 24 h, serum free X-Vivo medium
  viable cells: ~69%
[1]; hypoxia day 1
  percentage of viable cells: 78%
[1]; hypoxia day 3
  percentage of viable cells: 40%
[1]; hypoxia 0.5% O2, 24 h, serum free, P<0.001
  cell survival vs untreated cells: improved significantly
[1]; hypoxia and serum deprived conditions
  survival relatively to untreated cells: double their survival
CD34+ cells
  increase in cell number: approximately 3 fold
